Data: ChEMBL document CHEMBL4613312, “Predictive Gene Signature for Pyrazolopyrimidine Derivative c-Src Inhibitor 10a Sensitivity in Melanoma Cells” (ACS Med Chem Lett, 2020)
The source made the active and inactive calls. The rule behind the calls is not given here.

Assays:
Homo sapiens [1] = species: Homo sapiens; test: Cytotoxicity against human M221 cells assessed as reduction in cell viability at 50 to 800 nM measured after 72 hrs by Celltiter-Glo luminescent assay; type: functional, cell-based
Homo sapiens [2] = species: Homo sapiens; test: Cytotoxicity against human M193 cells assessed as reduction in cell viability at 0.8 to 6 mM measured after 72 hrs by Celltiter-Glo luminescent assay; type: functional, cell-based
[3] = Cytotoxicity against human M193 cells assessed as reduction in cell viability at 20 uM measured after 72 hrs by Celltiter-Glo luminescent assay relative to control; type: functional
[4] = Cytotoxicity against human M307 cells assessed as reduction in cell viability measured after 72 hrs by Celltiter-Glo luminescent assay; type: functional, cell-based
[5] = Cytotoxicity against human M133 cells assessed as reduction in cell viability measured after 72 hrs by Celltiter-Glo luminescent assay; type: functional, cell-based
[6] = Cytotoxicity against human M189 cells assessed as reduction in cell viability measured after 72 hrs by Celltiter-Glo luminescent assay; type: functional, cell-based
[7] = Cytotoxicity against human SHM20A2 cells assessed as reduction in cell viability measured after 72 hrs by Celltiter-Glo luminescent assay; type: functional, cell-based
[8] = Cytotoxicity against human M187 cells assessed as reduction in cell viability measured after 72 hrs by Celltiter-Glo luminescent assay; type: functional, cell-based
[9] = Cytotoxicity against human M144 cells assessed as reduction in cell viability measured after 72 hrs by Celltiter-Glo luminescent assay; type: functional, cell-based
[10] = Cytotoxicity against human M24 cells assessed as reduction in cell viability measured after 72 hrs by Celltiter-Glo luminescent assay; type: functional, cell-based; details: M24, 72 h
M34 [11] = test: Cytotoxicity against human M34 cells assessed as reduction in cell viability measured after 72 hrs by Celltiter-Glo luminescent assay; type: functional, cell-based; details: M34, 72 h
[12] = Cytotoxicity against human M77 cells assessed as reduction in cell viability measured after 72 hrs by Celltiter-Glo luminescent assay; type: functional, cell-based
[13] = Cytotoxicity against human M7 cells assessed as reduction in cell viability measured after 72 hrs by Celltiter-Glo luminescent assay; type: functional, cell-based
[14] = Cytotoxicity against human M1 cells assessed as reduction in cell viability measured after 72 hrs by Celltiter-Glo luminescent assay; type: functional, cell-based
[15] = Cytotoxicity against human M433 cells assessed as reduction in cell viability measured after 72 hrs by Celltiter-Glo luminescent assay; type: functional, cell-based
[16] = Cytotoxicity against human M2025 cells assessed as reduction in cell viability measured after 72 hrs by Celltiter-Glo luminescent assay; type: functional, cell-based
[17] = Cytotoxicity against human M221 cells assessed as reduction in cell viability measured after 72 hrs by Celltiter-Glo luminescent assay; type: functional, cell-based
[18] = Cytotoxicity against human M193 cells assessed as reduction in cell viability measured after 72 hrs by Celltiter-Glo luminescent assay; type: functional, cell-based
[19] = Synergistic cytotoxicity against human M193 cells assessed as combination index at 20 uM measured after 72 hrs in presence of 6 mM sodium valproate by Celltiter-Glo luminescent assay based Chou-Talalay method; type: functional
[20] = Synergistic cytotoxicity against human M193 cells assessed as combination index at 20 uM measured after 72 hrs in presence of 4 mM sodium valproate by Celltiter-Glo luminescent assay based Chou-Talalay method; type: functional
[21] = Synergistic cytotoxicity against human M193 cells assessed as combination index at 20 uM measured after 72 hrs in presence of 0.8 mM sodium valproate by Celltiter-Glo luminescent assay based Chou-Talalay method; type: functional
[22] = Synergistic cytotoxicity against human M221 cells assessed as combination index at 20 uM measured after 72 hrs in presence of 0.8 mM sodium valproate by Celltiter-Glo luminescent assay based Chou-Talalay method; type: functional
[23] = Synergistic cytotoxicity against human M221 cells assessed as combination index at 20 uM measured after 72 hrs in presence of 0.2 mM sodium valproate by Celltiter-Glo luminescent assay based Chou-Talalay method; type: functional
[24] = Synergistic cytotoxicity against human M221 cells assessed as combination index at 20 uM measured after 72 hrs in presence of 0.05 mM sodium valproate by Celltiter-Glo luminescent assay based Chou-Talalay method; type: functional
[25] = Chemosensitization activity in human M221 cells assessed as reduction in cell viability at 20 uM measured after 72 hrs in presence of 0.8 mM sodium valproate by Celltiter-Glo luminescent assay relative to control; type: functional
[26] = Chemosensitization activity in human M221 cells assessed as reduction in cell viability at 20 uM measured after 72 hrs in presence of 200 nM sodium valproate by Celltiter-Glo luminescent assay relative to control; type: functional
[27] = Chemosensitization activity in human M221 cells assessed as reduction in cell viability at 20 uM measured after 72 hrs in presence of 50 nM sodium valproate by Celltiter-Glo luminescent assay relative to control; type: functional
[28] = Cytotoxicity against human M221 cells assessed as reduction in cell viability at 20 uM measured after 72 hrs by Celltiter-Glo luminescent assay relative to control; type: functional
[29] = Chemosensitization activity in human M193 cells assessed as reduction in cell viability at 20 uM measured after 72 hrs in presence of 0.8 mM sodium valproate by Celltiter-Glo luminescent assay relative to control; type: functional
[30] = Chemosensitization activity in human M193 cells assessed as reduction in cell viability at 20 uM measured after 72 hrs in presence of 4 mM sodium valproate by Celltiter-Glo luminescent assay relative to control; type: functional
[31] = Chemosensitization activity in human M193 cells assessed as reduction in cell viability at 20 uM measured after 72 hrs in presence of 6 mM sodium valproate by Celltiter-Glo luminescent assay relative to control; type: functional
M34 [32] = test: Upregulation of TMED7 mRNA level in human M34 cells by SYBR-green dye based qRT-PCR analysis; type: functional, cell-based
M34 [33] = test: Upregulation of PLOD2 mRNA level in human M34 cells by SYBR-green dye based qRT-PCR analysis; type: functional, cell-based
M34 [34] = test: Downregulation of XRCC5 mRNA level in human M34 cells by SYBR-green dye based qRT-PCR analysis; type: functional, cell-based
M34 [35] = test: Downregulation of NSUN5 mRNA level in human M34 cells by SYBR-green dye based qRT-PCR analysis; type: functional, cell-based
Homo sapiens [36] = species: Homo sapiens; test: Upregulation of TMED7 mRNA level in human M433 cells by SYBR-green dye based qRT-PCR analysis; type: functional, cell-based
Homo sapiens [37] = species: Homo sapiens; test: Upregulation of PLOD2 mRNA level in human M433 cells by SYBR-green dye based qRT-PCR analysis; type: functional, cell-based
Homo sapiens [38] = species: Homo sapiens; test: Downregulation of XRCC5 mRNA level in human M433 cells by SYBR-green dye based qRT-PCR analysis; type: functional, cell-based
Homo sapiens [39] = species: Homo sapiens; test: Downregulation of NSUN5 mRNA level in human M433 cells by SYBR-green dye based qRT-PCR analysis; type: functional, cell-based
Homo sapiens [40] = species: Homo sapiens; test: Upregulation of TMED7 mRNA level in human M2025 cells by SYBR-green dye based qRT-PCR analysis; type: functional, cell-based
Homo sapiens [41] = species: Homo sapiens; test: Upregulation of PLOD2 mRNA level in human M2025 cells by SYBR-green dye based qRT-PCR analysis; type: functional, cell-based
Homo sapiens [42] = species: Homo sapiens; test: Downregulation of XRCC5 mRNA level in human M2025 cells by SYBR-green dye based qRT-PCR analysis; type: functional, cell-based
Homo sapiens [43] = species: Homo sapiens; test: Downregulation of NSUN5 mRNA level in human M2025 cells by SYBR-green dye based qRT-PCR analysis; type: functional, cell-based
Homo sapiens [44] = species: Homo sapiens; test: Upregulation of TMED7 mRNA level in human M221 cells by SYBR-green dye based qRT-PCR analysis; type: functional, cell-based
Homo sapiens [45] = species: Homo sapiens; test: Upregulation of PLOD2 mRNA level in human M221 cells by SYBR-green dye based qRT-PCR analysis; type: functional, cell-based
Homo sapiens [46] = species: Homo sapiens; test: Downregulation of XRCC5 mRNA level in human M221 cells by SYBR-green dye based qRT-PCR analysis; type: functional, cell-based
Homo sapiens [47] = species: Homo sapiens; test: Downregulation of NSUN5 mRNA level in human M221 cells by SYBR-green dye based qRT-PCR analysis; type: functional, cell-based
Homo sapiens [48] = species: Homo sapiens; test: Upregulation of TMED7 mRNA level in human M193 cells by SYBR-green dye based qRT-PCR analysis; type: functional, cell-based
Homo sapiens [49] = species: Homo sapiens; test: Upregulation of PLOD2 mRNA level in human M193 cells by SYBR-green dye based qRT-PCR analysis; type: functional, cell-based
Homo sapiens [50] = species: Homo sapiens; test: Downregulation of XRCC5 mRNA level in human M193 cells by SYBR-green dye based qRT-PCR analysis; type: functional, cell-based
Homo sapiens [51] = species: Homo sapiens; test: Downregulation of NSUN5 mRNA level in human M193 cells by SYBR-green dye based qRT-PCR analysis; type: functional, cell-based

CCCC(CCC)C(=O)O
Activity (Homo sapiens [1]): inactive
Activity (Homo sapiens [2]): inactive

CSc1nc(Nc2cccc(Cl)c2)c2cnn(CCc3ccccc3)c2n1
Activity [3]: 47%
IC50 [4]: 0.09 to 9.01 µM
IC50 [5]: 0.09 to 9.01 µM
IC50 [6]: 0.09 to 9.01 µM
IC50 [7]: 0.09 to 9.01 µM
IC50 [8]: 0.09 to 9.01 µM
IC50 [9]: 0.09 to 9.01 µM
IC50 [10]: 0.09 to 9.01 µM
IC50 (M34 [11]): 0.09 to 9.01 µM
IC50 [12]: 0.09 to 9.01 µM
IC50 [13]: 0.09 to 9.01 µM
IC50 [14]: 0.09 to 9.01 µM
IC50 [15]: 0.09 to 9.01 µM
IC50 [16]: 0.09 to 9.01 µM
IC50 [17]: 0.09 to 9.01 µM
IC50 [18]: 0.09 to 9.01 µM
CI [19]: 0.696
CI [20]: 0.76
CI [21]: 0.835
CI [22]: 0.603
CI [23]: 0.681
CI [24]: 0.766
Activity [25]: 92%
Activity [26]: 84%
Activity [27]: 75%
Activity [28]: 55%
Activity [29]: 75%
Activity [30]: 84%
Activity [31]: 89%
Activity (M34 [32]): Active
Activity (M34 [33]): Active
Activity (M34 [34]): Active
Activity (M34 [35]): Active
Activity (Homo sapiens [36]): Active
Activity (Homo sapiens [37]): Active
Activity (Homo sapiens [38]): Active
Activity (Homo sapiens [39]): Active
Activity (Homo sapiens [40]): Active
Activity (Homo sapiens [41]): Active
Activity (Homo sapiens [42]): Active
Activity (Homo sapiens [43]): Active
Activity (Homo sapiens [44]): Active
Activity (Homo sapiens [45]): Active
Activity (Homo sapiens [46]): Active
Activity (Homo sapiens [47]): Active
Activity (Homo sapiens [48]): Active
Activity (Homo sapiens [49]): Active
Activity (Homo sapiens [50]): Active
Activity (Homo sapiens [51]): Active
